The assay has as its target WDR5 (Homo sapiens, UniProt P61964). Kind of assay: Competition-based fluorescence polarization anisotropy assay. To be noted: binding to WDR5; displacement of FITC-labeled small molecule probe (analogous to Example J2 or HCH-25) or peptide probe FITC-AHx-SEEEIDVVSV; pH 6.0; Ki converted from IC50. The procedure, abridged: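 Competition fluorescence polarization anisotropy binding to WDR5 using a FITC-labeled peptide probe or a fluorescently labeled small-molecule probe. Buffer: 200 mM phosphate, 300 mM NaCl, 0.5 mM TCEP, 0.1% Chaps, pH 6.0. Displacement data were converted to Ki.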

For orientation: Ki means a measure of affinity in units of concentration, obtained from inhibition or displacement. A higher Ki goes with a looser hold on the target. Turning to `O=C(NCc1ccccn1)c1cc(Cl)cc(NS(=O)(=O)c2cc(Br)ccc2O)c1O` [Example J31, 3-((5-Bromo-2-hydroxyphenyl)sulfonamido)-5-chloro-2-hydroxy-N-(pyridin-2-ylmethyl)benzamide], the Ki worked out at 0.79 µM.
Compound `O=C(NC[C@@H]1CCCO1)c1cc(Cl)cc(NS(=O)(=O)c2cc(Br)ccc2O)c1O` [Example J27, (S)-3-((5-Bromo-2-hydroxyphenyl)sulfonamido)-5-chloro-2-hydroxy-N-((tetrahydrofuran-2-yl)methyl)benzamide] registered a Ki of 0.78 µM.
Compound `CN(CCO)C(=O)c1cc(C2CC2)cc(NS(=O)(=O)c2cc(Br)ccc2O)c1O` [Example J82, 3-((5-Bromo-2-hydroxyphenyl)sulfonamido)-5-cyclopropyl-2-hydroxy-N-(2-hydroxyethyl)-N-methylbenzamide] yielded a Ki of 3.76 µM.
Consider `N#CC1(c2cc(NS(=O)(=O)c3cc(Br)cc4cccnc34)c(O)c(C(=O)O)c2)CCC1` [SN-6, 3-((6-bromoquinoline)-8-sulfonamido)-5-(1-cyanocyclobutyl)-2-hydroxybenzoic acid], for which affinity was put at a Ki of 0.04 µM.
The same measure for `O=C(c1cc(C2CC2)cc(NS(=O)(=O)c2cc(Br)ccc2O)c1O)N1CCOCC1` [Example J85, 5-Bromo-N-(5-cyclopropyl-2-hydroxy-3-(morpholine-4-carbonyl)phenyl)-2-hydroxybenzenesulfonamide]: 1.44 µM; for `COC[C@H]1CCCN1C(=O)c1cc(OC(F)(F)F)cc(NS(=O)(=O)c2cc(Br)ccc2OC)c1O` [Example J181, (R)-5-bromo-N-(2-hydroxy-3-(2-(methoxymethyl)pyrrolidine-1-carbonyl)-5-(trifluoromethoxy)phenyl)-2-methoxybenzenesulfonamide]: 5.88 µM; for `NC(=O)c1c(O)c(NS(=O)(=O)c2cc(Br)ccc2O)cc(C2CC2)c1F` [Example J123, 3-((5-Bromo-2-hydroxyphenyl)sulfonamido)-5-cyclopropyl-6-fluoro-2-hydroxybenzamide]: 0.36 µM.
The same measure for `COc1ccc(Cl)cc1S(=O)(=O)Nc1cc(Cl)cc([N+](=O)[O-])c1O` [NE2, 5-Chloro-N-(5-chloro-2-hydroxy-3-nitrophenyl)-2-methoxybenzenesulfonamide]: 5.05 µM.
`O=C(NCCN1CCOCC1)c1cc(C2CC2)cc(NS(=O)(=O)c2cc(Br)ccc2O)c1O` [Example J84, 3-((5-Bromo-2-hydroxyphenyl)sulfonamido)-5-cyclopropyl-2-hydroxy-N-(2-morpholinoethyl)benzamide] showed a Ki of 1.07 µM.

Values taken from US12398097B2, “WDR5-MYC inhibitors” (Vanderbilt University, priority 2019, dated 2025).
